Legend:
U-937 cells [1] = assay: MTT cytotoxicity assay, U-937; assay type: cell-based, human; conditions: Mean ± SD
Method: (§1) Cytotoxicity was measured by the MTT assay.

HL-60 cells = assay: MTT cytotoxicity assay, HL-60; assay type: cell-based, human; conditions: Mean ± SD
Method: as §1

KG1 cells = assay: MTT cytotoxicity assay, KG1; assay type: cell-based, human; conditions: Mean ± SD
Method: as §1

HEL cells = assay: MTT cytotoxicity assay, HEL; assay type: cell-based, human; conditions: 48 h, Mean ± SD
Method: as §1

in vitro = conditions: human
Method: (§9) Meanwhile, the cytotoxicity against human embryonic kidney cells (HEK-293) was evaluated for their toxic selectivity.
(§10) Human leukemia cell lines (U-937, HL-60, KG1 and HEL) and human embryonic kidney cells (HEK-293) were purchased from American Type Culture Collection (ATCC) (Manassas, VA, USA). Cells were cultured in RPMI 1640 supplemented with 10% fetal bovine serum (Gibco Life Technologies, Grand Island, NY, USA), 50 U/mL penicillin and 100 μg/mL streptomycin and maintained in a humidified atmosphere containing 5% CO2 at 37 °C. Penicillin and streptomycin were purchased from Hyclone (Logan, UT, USA).
(§11) Cytotoxicity was measured by the MTT assay. Briefly, cells were cultured in RPMI 1640 supplemented with 10% fetal bovine serum, 10 mmol/L Hepes, 50 units/mL penicillin, 50 μg/mL streptomycin, and 100 μg /mL gentamicin and were maintained at 37 °C in 5% CO2. A total of 2.5 × 10^4 cells in growth media were placed in each well of a 96-well flat-bottom plate. After 12 h of incubation, the growth medium was replaced by media containing different concentrations of the test samples. Cytotoxicity was determined at 48 h from the MTT absorbance (490 nm) reading for each concentration compared to the control. At least three replications for each sample were used to determine the cytotoxicity.

[2] = MTT cytotoxicity assay, HEK-293 (toxic selectivity); conditions: human, HEK-293 cells, IC50 HEK-293, MTT, Mean ± SD
Method: as §9, §10, §11

U-937 cells [3] = assay: Hoechst 33258 staining, apoptotic morphology; assay type: cell-based, human; conditions: 2.0 μmol/L, 24 h
Text: Based on the cytotoxic results, compound 8 (HMC) has pronounced cytotoxicity against human leukemia cells, especially to U-937 cells. Therefore, it was worthy of investigating the cytotoxic mechanism of HMC in U-937 cell death. To elucidate the characteristics of HMC-induced U-937 cells, morphologic changes were examined.
(§2) Figure 2 HMC initiated apoptosis in U-937 cells through mitochondrial and Caspase cascade. (A) Apoptotic U-937 cells were observed after the cells were stained by Hoechst 33258. (B) Mitochondrial transmembrane potential was reduced in U-937 cells stained by Rodamine123. […] (D–F) HMC impacted the mRNA levels and protein expressions of Bax and Bcl-2 in U-937 cells leading to the activation of caspase 3. Data are presented as means ± SD of three independent tests. * p < 0.05 versus control, ** p < 0.01 versus control.

U-937 cells [4] = assay: Mitochondrial transmembrane potential, Rhodamine 123; assay type: cell-based, human; conditions: Rhodamine 123, compared with the control group
Text: as §2
(§3) To make it clear whether HMC-induce apoptosis was related to mitochondrial function, mitochondrial transmembrane potential was assessed using Rhodamine 123. […] Meanwhile, the ATP level of mitochondria was measured in U-937 cells treated by HMC.

U-937 cells [5] = assay: ATP luminescence level; assay type: cell-based, human; conditions: 2.0 μmol/L, 24 h
Method: as §3
ATP luminescence was detected according to the manufactured information to evaluate the mitochondrial damage after 2.0 µmol/L HMC insulting. U-937 cells were treated without or with HMC for 24 h. After incubation, equilibrate the plates and its contents at room temperature for 30 min. One hundred microliters of cell titer reagent was added to each well in a 96-well plate and the plate was shaken gently for 2 min to induce cell lysis. The plate was incubated at room temperature for 10 min to stabilize luminescent signal and then record luminescence.

Bax mRNA = assay: RT-PCR Bax mRNA in U-937 cells; assay type: cell-based, human; conditions: 2.0 µmol/L, 24 h
Method: (§4) Since Bcl-2 family members were critical regulators of the mitochondrial pathway that induced intrinsic caspase activation, RT-PCR was applied to detect the mRNA level of Bax and Bcl-2 in HMC-treated U-937 cells. […] Meanwhile, Western blot analyses were carried out to observe the expressions of Bcl-2 and Bax.
(§5) Total RNA extraction for leukemia cells was performed by using Trizol method. U-937 cells were seeded in 6 well plates for 24 h, and then the cells were treated by 2.0 µmol/L HMC for another 24 h. After treatment, the cells were collected for RNA extraction. The forward and reversed primers of Bax were […] and […]. The forward and reversed primers of Bcl-2 were […] and […]. The forward and reversed primers of GAPDH were […] and […]. The reaction was conducted under the conditions with 94 °C for 30 s, 95 °C for 5 s, 62 °C for 30 s, 72 °C for 30 s for 30 cycles. Identity of the PCR-products was controlled by melting curve analysis. Standard curves were prepared from isolated PCR products by serial dilution. Data were normalized towards GAPDH expression and statistically analyzed.

Bcl-2 mRNA = assay: RT-PCR Bcl-2 mRNA in U-937 cells; assay type: cell-based, human; conditions: 2.0 µmol/L, 24 h
Method: as §4, §5

Bax = assay: Western blot Bax in U-937 cells; assay type: cell-based, human; conditions: 2.0 µmol/L, 24 h
Method: as §4
(§6) U-937 cells were treated with 2.0 µmol/L HMC for 0, 24 and 48 h, respectively. The whole cells were collected, and then the cell pellets were resuspended with RIPA buffer that contained a mixture of protease inhibitors at 4 °C for 30 min. After 14,000× g centrifugation for 15 min, the protein content of supernatant was determined by the Bio-Rad DC protein assay (Bio-Rad Laboratories, Hercules, CA, USA). […] Proteins were detected using primary antibodies, followed by HRP-conjugated secondary antibody. Labeling was detected using the ECL system (Amersham Biosciences Corp., Piscataway, NJ, USA).

Bcl-2 = assay: Western blot Bcl-2 in U-937 cells; assay type: cell-based, human; conditions: 2.0 µmol/L, 24 h
Method: as §4, §6

Caspase 3 = Caspase 3 activation in U-937 cells; assay type: cell-based, human; conditions: 2.0 μmol/L, 24 h
Method: as §4, §6

Ras = assay: Western blot Ras in U-937 cells; assay type: cell-based, human; conditions: 2.0 µmol/L, 0, 24 and 48 h
Text: (§7) Unusual activation of Ras/Raf/MAPK signaling pathway is one of main characteristic of human cancer. In this study, the Ras/Raf/MAPK pathway was investigated in HMC-induced U-937 cell apoptosis. Genistein, a broad-spectrum inhibitor of protein tyrosine kinases (PTKs), was used to detect the cell viability after HMC treatment. […] Moreover, the expressions of Ras/Raf/ERK in U-937 cells were detected after HMC treatment in different time courses.
(§8) Figure 3 Apoptosis via Ras/Raf/ERK signaling pathway in U-937 cells after HMC treatment. (A) Cell viability was assessed using MTT method in U-937 cells after pretreated by 10 µmol/L Genistein for 1 h, and then the cells were incubated without or with 2.0 µmol/L HMC for 48 h. […] Data are presented as means ± SEM of three independent tests. * p < 0.05 versus control, ** p < 0.01 versus control.
as §6, with “The whole cells were collected, and then the cell pellets were resuspended with RIPA buffer that contained a mixture of protease inhibitors at 4 °C for 30 min.” left out

p-Raf = assay: Western blot p-Raf in U-937 cells; assay type: cell-based, human; conditions: 2.0 µmol/L, 0, 24 and 48 h
Text: as §7, §8
as §6, with “The whole cells were collected, and then the cell pellets were resuspended with RIPA buffer that contained a mixture of protease inhibitors at 4 °C for 30 min.” left out

p-ERK1/2 = assay: Western blot p-ERK1/2 in U-937 cells; assay type: cell-based, human; conditions: 2.0 µmol/L, 0, 24 and 48 h
Text: as §7, §8
as §6, with “The whole cells were collected, and then the cell pellets were resuspended with RIPA buffer that contained a mixture of protease inhibitors at 4 °C for 30 min.” left out

total ERK = assay: Western blot total ERK in U-937 cells; assay type: cell-based, human; conditions: 2.0 µmol/L, 0, 24 and 48 h
Text: as §7, §8
as §6, with “The whole cells were collected, and then the cell pellets were resuspended with RIPA buffer that contained a mixture of protease inhibitors at 4 °C for 30 min.” left out

[6] = tested on: human embryonic kidney cells HEK-293; assay: MTT cytotoxicity assay, HEK-293 (toxic selectivity); conditions: read-out: IC50 HEK-293; MTT, 48 h, Mean ± SD
Method: as §9, §10, §11

U-937 cells [7] = assay: MTT cell viability, genistein pretreatment plus HMC; assay type: cell-based, human; conditions: 10 µmol/L Genistein pretreatment 1 h, then 2.0 µmol/L HMC 48 h
Text: as §7, §8

Molecule | IC50 (U-937 cells [1]; Homo sapiens, U-937, 48 h) [µM] | IC50 (HL-60 cells; Homo sapiens, HL-60, 48 h) [µM] | IC50 (KG1 cells; Homo sapiens, KG-1, 48 h) [µM] | IC50 (HEL cells; Homo sapiens, HEL) [µM] | IC50 at 48 h (in vitro) [µM] | further results
N.N.[Cl][Pt][Cl] [Cisplatin, cisplatin, reference compound] |  |  |  |  |  | IC50 (U-937 cells [1]; 48 h): 6.3 ± 0.5 µM; IC50 (HL-60 cells; 48 h): 13.5 ± 0.4 µM; IC50 (KG1 cells; 48 h): 4.1 ± 0.3 µM; IC50 (HEL cells): 7.7 ± 0.2 µM
OC[C@H]1O[C@@H](OCCc2c[nH]c3ccccc23)[C@H](O)[C@@H](O)[C@@H]1O [Compound 1, 2-(indol-3-yl)ethyl-β-D-glucopyranoside] | 52.1 ± 2.6 | 78.9 ± 3.8 | 23.1 ± 1.4 | 121 ± 5.5 | > 200 | 
C[C@@H]1O[C@@H](OC[C@H]2O[C@@H](OCCc3c[nH]c4ccccc34)[C@H](O)[C@@H](O)[C@@H]2O)[C@H](O)[C@H](O)[C@H]1O [Compound 2, 2-(indol-3-yl)ethyl-α-L-rhamnopyranosyl-(1 → 6)-β-D-glucopyranoside] | 80.2 ± 4.5 | 55.3 ± 3.4 | 60.2 ± 2.7 | 131 ± 4.9 | > 200 | 
COc1ccc2c(c1)NC(=O)[C@]2(O)CCNC(C)=O [Compound 3, (S)-3-hydroxy-3-(N-acetyl-2-aminoethyl)-6-methoxyindol-2-one] | 75.3 ± 2.8 | 36.2 ± 1.1 | > 200 | 55.3 ± 3.2 | 122 ± 5.7 | 
COc1ccc2c(c1)[nH]c1c(C)nccc12 [Compound 5, harmine] | 23.1 ± 0.9 | 71.2 ± 3.3 | 62.7 ± 2.8 | 20.3 ± 1.1 |  | IC50 at 48 h [2]: > 200 µM
COc1ccc2c([nH]c3c(C)nccc32)c1O[C@@H]1O[C@H](CO)[C@@H](O)[C@H](O)[C@H]1O [Compound 6, ruin] | 30.6 ± 1.2 | 60.7 ± 2.9 | 44.5 ± 2.1 | 71.6 ± 2.7 | > 200 | 
COC(=O)c1nccc2c1[nH]c1cc(OC)ccc12 [Compound 7, harmic acid methyl ester] | 22.3 ± 1.4 | 44.3 ± 2.1 | 56.8 ± 2.5 | 35.2 ± 2.8 | 164 ± 8.1 | 
COc1ccc2c3c([nH]c2c1)C=NCC3 [Compound 8, harmalacidine] | 3.1 ± 0.2 | 61.3 ± 2.8 | 32.6 ± 1.7 | 25.7 ± 1.1 |  | morphologic alterations of cell apoptosis (membrane blebbing, nuclear condensation, granular apoptotic bodies) (U-937 cells [3]): characteristic morphologic alterations of cell apoptosis were observed; mitochondrial transmembrane potential (U-937 cells [4]): obviously reduced; ATP level (U-937 cells [5]): reduce; Bax mRNA level (Bax mRNA): increase; Bcl-2 mRNA level (Bcl-2 mRNA): reduce; expression of pro-apoptotic Bax (Bax): began to increase; expression of anti-apoptotic Bcl-2 (Bcl-2): began to decrease; Caspase 3 activation (Caspase 3): activated; expression of Ras (Ras): down-regulate; expression of p-Raf (p-Raf): down-regulate; expression of p-ERK1/2 (p-ERK1/2): down-regulate; total ERK (total ERK): kept no change; IC50 at 48 h [2]: > 200 µM
COc1ccc2c3c([nH]c2c1)C(C)=NCC3 [Compound 9, harmaline] | 10.6 ± 0.7 | 55.3 ± 2.4 | 46.8 ± 1.9 | 20.1 ± 1.2 |  | IC50 at 48 h [2]: 156 ± 7.2 µM
COc1ccc2c3c([nH]c2c1)C(C)=NCC3 [Compound 10, protonated harmaline] |  |  |  |  |  | IC50 (U-937 cells [1]; 48 h): 15.3 ± 0.7 µM; IC50 (HL-60 cells; 48 h): 45.7 ± 2.1 µM; IC50 (KG1 cells; 48 h): 56.9 ± 2.3 µM; IC50 (HEL cells): 21.2 ± 1.1 µM; IC50 [6]: 132 ± 4.6 µM
CCc1cc2nccc3c4ccc(OC)cc4n(c1=O)c23 [Compound 11, luotonin C] | 49.6 ± 1.9 | 87.3 ± 3.7 | 113 ± 5.6 | 68.3 ± 3 | > 200 | 
COc1ccc2c3c([nH]c2c1)-c1nc2ccccc2c(=O)n1CC3 [Compound 12, 11-methyoxyl-rutaecarpine] | 55.3 ± 1.7 | 93.8 ± 6.8 | 88.1 ± 3.7 | 121 ± 5.5 | > 200 | 
O=c1c(-c2ccc(O)cc2)coc2cc(O)cc(O)c12 [genistein, Genistein] |  |  |  |  |  | cell viability after HMC co-incubation compared with HMC-treated only (U-937 cells [7]): significantly decrease
harmol [Compound 4] |  |  |  |  |  | IC50 (U-937 cells [1]; 48 h): 46.1 ± 2 µM; IC50 (HL-60 cells; 48 h): 62 ± 2.8 µM; IC50 (KG1 cells; 48 h): 47.7 ± 2.3 µM; IC50 (HEL cells): 54.6 ± 2.3 µM; IC50 [6]: > 200 µM
